In test [1] the test system is lung cancer cell lines (e.g. NCI-H23, NCI-H1229). In words: Cell based assay, cell viability (CellTiter-Glo), lung cancer cell lines. The settings on record: Homo sapiens, 72 hours treatment, CellTiter-Glo. The method in brief:
(§1)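 ATP content as viability surrogate, luminescent read; 72 h compound, 0–2 μM final; cells plated 24 h prior.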

In test [2] the test system is blood cancer cell lines (e.g. HL-60, Jurkat, Raji, Ramos, Daudi, MOLT-4). In words: Cell based assay, cell viability (CellTiter-Glo), blood cancer cell lines. To be noted: Homo sapiens. The method in brief: as §1
For test [3], the system named is brain cancer cell lines. In words: Cell based assay, cell viability (CellTiter-Glo), brain cancer cell lines. The settings on record: Homo sapiens.
For test [4], the system named is liver cancer cell lines. Description: Cell based assay, cell viability (CellTiter-Glo), liver cancer cell lines. To be noted: Homo sapiens, SK-HEP1; SK-HEP-1 cell line. The method in brief:
as §1

The mark [5] stands for this setting: A549 cells, read-out: IC50, lung cancer cell line A549.
Setting [6] is: DMS 114 cells, read-out: IC50, lung cancer cell line DMS 114.
Where [7] appears, read: NCI-H23 cells, read-out: IC50, lung cancer cell line NCI-H23.
[8] abbreviates: NCI-H460 cells, read-out: IC50, lung cancer cell line NCI-H460.
The mark [9] stands for this setting: NCI-H522 cells, read-out: IC50, lung cancer cell line NCI-H522.
Setting [10] is: NCI-H1299 cells, read-out: IC50, lung cancer cell line NCI-H1299.
The mark [11] stands for this setting: NCI-H1437 cells, read-out: IC50, lung cancer cell line NCI-H1437.
The mark [12] stands for this setting: MV4-11, blood cancer cell line MV-4-11, 72 hours, read-out: IC50, MV-4-11.
[13] abbreviates: blood cancer cell line Daudi, 72 hours, read-out: IC50, Daudi.
Where [14] appears, read: blood cancer cell line HL-60, 72 hours, read-out: IC50, HL-60.
Setting [15] is: blood cancer cell line Jurkat, 72 hours, read-out: IC50, Jurkat.
Where [16] appears, read: blood cancer cell line MOLT-4, 72 hours, read-out: IC50, MOLT-4.
Where [17] appears, read: blood cancer cell line Raji, 72 hours, read-out: IC50, Raji.
The mark [18] stands for this setting: blood cancer cell line Ramos (RA 1), 72 hours, read-out: IC50, Ramos (RA 1).
Where [19] appears, read: blood cancer cell line U-937, 72 hours, read-out: IC50, U-937.
[20] abbreviates: U138-MG, U-138 MG cell line, read-out: IC50, Brain cancer cell line U-138 MG.
The mark [21] stands for this setting: T98G cell line, read-out: IC50, Brain cancer cell line T98G.
The mark [22] stands for this setting: U-251 MG cell line, read-out: IC50, Brain cancer cell line U-251 MG.

Read-outs that look alike come from different tables or passages of the source.

Take `CC(=O)c1c([S+]([O-])Cc2cc(Cl)ccc2Cl)[nH]c2c(Br)ccc(Cl)c2c1=O` (stereo not drawn) [Compound 44, 3-acetyl-8-bromo-5-chloro-2-((2,5-dichlorobenzyl)sulfinyl)quinolin-4(1H)-one]: the IC50 in test [1] (setting [5]) was 1.87 µM; in test [1] (setting [6]), above 2 µM; in test [1] (MRC-5 cells, read-out: IC50) it was 0.96 µM; in test [1] (setting [7]), 0.96 µM; in test [1] (setting [8]), 1.75 µM; in test [1] (setting [9]), above 2 µM. Besides, the IC50 in test [1] (setting [10]) is 1.28 µM; in test [1] (setting [11]), above 10 µM; in test [2] (setting [12]), 1.98 µM; in test [2] (setting [13]), 1.8 µM; in test [2] (setting [14]), 1.73 µM; in test [2] (setting [15]), 1.13 µM. For the same molecule, the IC50 is 1.47 µM in test [2] (setting [16]); 1.16 µM in test [2] (setting [17]); 1.93 µM in test [2] (setting [18]); above 2 µM in test [2] (setting [19]); above 2 µM in test [3] (setting [20]); above 10 µM in test [3] (setting [21]). The IC50 in test [3] (setting [22]) came to 1.05 µM; in test [4], 0.94 µM.
Regarding `COc1cccc(C[S+]([O-])c2[nH]c3c(Br)ccc(Cl)c3c(=O)c2C(C)=O)c1` (stereo not drawn) [Compound 55, 3-acetyl-8-bromo-5-chloro-2-((3-methoxybenzyl)sulfinyl)quinolin-4(1H)-one], the IC50 in test [1] (setting [5]) is above 2 µM; in test [1] (setting [6]), above 2 µM; in test [1] (MRC-5 cells, read-out: IC50) it was above 2 µM; in test [1] (setting [7]), 1.28 µM; in test [1] (setting [8]), above 2 µM; in test [1] (setting [9]), above 2 µM. The IC50 in test [1] (setting [10]) was above 2 µM; in test [1] (setting [11]) it was above 10 µM; in test [2] (setting [12]), above 2 µM; in test [2] (setting [13]), above 2 µM; in test [2] (setting [14]) it was above 2 µM; in test [2] (setting [15]), 1.3 µM. Moreover, the IC50 in test [2] (setting [16]) is 1.47 µM; in test [2] (setting [17]), above 2 µM; in test [2] (setting [18]), above 2 µM; in test [2] (setting [19]), above 2 µM; in test [3] (setting [20]), above 2 µM; in test [3] (setting [21]), above 10 µM. Besides, the concentration for half-maximal inhibition (IC50) was above 2 µM in test [3] (setting [22]) and 1.43 µM in test [4].
Turning to `CC(=O)c1c([S+]([O-])Cc2cc(C)on2)[nH]c2c(Br)ccc(Cl)c2c1=O` (stereo not drawn) [Compound 51, 3-acetyl-8-bromo-5-chloro-2-(((5-methylisoxazol-3-yl)methyl)sulfinyl)quinolin-4(1H)-one], the IC50 is above 2 µM in test [1] (setting [5]); above 2 µM in test [1] (setting [6]); 0.58 µM in test [1] (MRC-5 cells, read-out: IC50); 0.77 µM in test [1] (setting [7]); 1.62 µM in test [1] (setting [8]); 1.73 µM in test [1] (setting [9]). Further, the half-inhibitory concentration (IC50) is above 10 µM in test [1] (setting [11]); 0.68 µM in test [2] (setting [12]); 1.66 µM in test [2] (setting [13]); 0.95 µM in test [2] (setting [14]); 0.85 µM in test [2] (setting [15]); 1.44 µM in test [2] (setting [16]). The concentration for half-maximal inhibition (IC50) in test [2] (setting [17]) was 0.76 µM; in test [2] (setting [18]), 1.07 µM; in test [2] (setting [19]) it was 0.63 µM; in test [3] (setting [20]) it was 1.92 µM; in test [3] (setting [21]) it was above 10 µM; in test [3] (setting [22]), above 2 µM. For the same molecule, half-maximal inhibition in test [4] (IC50) was put at 1.31 µM.
As to `CC(=O)c1c([S+]([O-])Cc2ccc(F)cc2F)[nH]c2c(Br)ccc(Cl)c2c1=O` (stereo not drawn) [Compound 29, 3-acetyl-8-bromo-5-chloro-2-((2,4-difluorobenzyl)sulfinyl)quinolin-4(1H)-one], the IC50 was above 2 µM in test [1] (setting [5]); above 2 µM in test [1] (setting [6]); above 2 µM in test [1] (MRC-5 cells, read-out: IC50); 0.91 µM in test [1] (setting [7]); 1.77 µM in test [1] (setting [8]); above 2 µM in test [1] (setting [9]). The concentration for half-maximal inhibition (IC50) in test [1] (setting [10]) was 1.42 µM; in test [1] (setting [11]), above 10 µM; in test [2] (setting [12]), 1.4 µM; in test [2] (setting [13]), above 2 µM; in test [2] (setting [14]), 1.72 µM; in test [2] (setting [15]) it was 1.08 µM. The half-maximal inhibitory concentration (IC50) in test [2] (setting [16]) was 1.44 µM; in test [2] (setting [17]) it was 1.18 µM; in test [2] (setting [18]), 1.67 µM; in test [2] (setting [19]) it was 1.05 µM; in test [3] (setting [20]), 1.38 µM; in test [3] (setting [21]) it was above 10 µM. The IC50 in test [3] (setting [22]) came out at 1.14 µM; in test [4] it was 1.03 µM.
Consider `CC(=O)c1c([S+]([O-])Cc2ccc(C(F)(F)F)cc2)[nH]c2c(Br)ccc(Cl)c2c1=O` (stereo not drawn) [Compound 70, 3-acetyl-8-bromo-5-chloro-2-((4-(trifluoromethyl)benzyl)sulfinyl)quinolin-4(1H)-one], for which the IC50 in test [1] (setting [5]) is 1.99 µM; in test [1] (setting [6]), above 2 µM; in test [1] (MRC-5 cells, read-out: IC50), 1.01 µM; in test [1] (setting [7]) it was 1.03 µM; in test [1] (setting [8]) it was 1.61 µM; in test [1] (setting [9]), above 2 µM. Moreover, the concentration for half-maximal inhibition (IC50) in test [1] (setting [10]) is 1.47 µM; in test [1] (setting [11]), above 10 µM; in test [2] (setting [12]), 1.52 µM; in test [2] (setting [13]) it was 1.6 µM; in test [2] (setting [14]), above 2 µM; in test [2] (setting [15]), 1.09 µM. The IC50 in test [2] (setting [16]) was 1.31 µM; in test [2] (setting [17]), 1.32 µM; in test [2] (setting [18]) it was 1.9 µM; in test [2] (setting [19]) it was above 2 µM; in test [3] (setting [20]), 1.52 µM; in test [3] (setting [21]), above 10 µM. The results for the IC50 in test [3] (setting [22]) and in test [4] were 1.14 µM and 1.03 µM, respectively.
